These results are taken from patent US10750729B2, “Pig for atrioventricular block model, monkey for atrioventricular block model, guinea pig for atrioventricular block model, and use thereof” (Toho University, priority 2012, dated 2020).

In one series the test system is dog. Conditions: dose 10 times to 30 times greater than that for human; cited from earlier work.
The test system of a further series is Dogs. The experiment in a line: Comparative Test Example 1: electrocardiogram of halothane-anesthetized dogs. The following applies: dog, 30 min recording. The series is classed as in vivo. As for the experimental part: Dogs (body weight: 10 kg, male, obtained from Nosan Co., Ltd.) were each anesthetized by intravenously administering thereto sodium thiopental (product of Mitsubishi Tanabe Pharma Corporation) at 30 mg/kg. After insertion of a tracheal cannula, an artificial respirator was used to ventilate it with 100% by volume oxygen and 1% by volume vaporized halothane. Here, the artificial respirator for experimental animals was set to a tidal volume of 20 mL/kg and a respiration rate of 15 strokes/min. Next, a cannula for drug administration was inserted to their left femoral vein. Then, ECG standard limb II leads was continuously recorded.
Each of the dogs (n=4) of Comparative Example 1 was recorded for an electrocardiogram before drug administration.
Fingolimod (FTY720, product of Sigma-Aldrich Inc.) was dissolved in 1% by mass lactic acid solution (product of Otsuka Pharmaceutical Factory, Inc.) so as to have a concentration of 0.3 mg/mL.
After the evaluation of base control, the cannula for drug administration was inserted, and the above-prepared FTY720 solution was intravenously administered to each of the dogs (n=4) of Comparative Example 1 for 10 min at a dose of 0.3 mg/kg. An electrocardiogram was recorded for 30 min from the start of administration of the FTY720 solution.
Fingolimod (FTY720, product of Sigma-Aldrich Inc.) was dissolved in 1% by mass lactic acid solution (product of Otsuka Pharmaceutical Factory, Inc.) so as to have a concentration of 3 mg/mL.
After the evaluation of base control, the cannula for drug administration was inserted, and the above-prepared FTY720 solution was intravenously administered to each of the dogs (n=4) of Comparative Example 1 for 10 min at a dose of 3 mg/kg. An electrocardiogram was recorded for 30 min from the start of administration of the FTY720 solution.

The next series relates to Guinea pigs (Hartley). Description: Test Example 3-1: electrocardiogram and aortic pressure of halothane-anesthetized guinea pigs (FTY720). The series is classed as in vivo. Conditions: guinea pig. As for the experimental part:
Guinea pigs (Hartley, body weight: 420 g to 650 g, male, obtained from Japan SLC, Inc.) were each anesthetized by intraperitoneally administering thereto sodium thiopental (product of Mitsubishi Tanabe Pharma Corporation) at 50 mg/kg. Next, a tracheal cannula was inserted into each of the guinea pigs. While their body temperature was being maintained at 37° C. with a warming pad, the guinea pigs were allowed to inhale 100% by volume oxygen and 1% by volume vaporized halothane (product of Takeda Pharmaceutical Company Limited.) using an artificial respirator for experimental animals (SN-480-7; product of shimano Co., Ltd.). Here, the artificial respirator for experimental animals was set to a tidal volume of 10 mL/kg and a respiration rate of 60 strokes/min. Next, a cannula for drug administration was inserted to their left femoral vein. In addition, a heparinized catheter for monitoring the blood pressure was inserted to the aorta through the left femoral […]. Then, ECG standard limb II leads was continuously recorded.
Each of the guinea pigs (n=12) of Example 3 was recorded for an electrocardiogram before administration of a drug or a solvent.
FTY720 (product of Sigma-Aldrich Inc.) was dissolved in physiological saline (product of Otsuka Pharmaceutical Factory, Inc.) so as to have a concentration of 0.03 mg/mL.
After the evaluation of base control, the cannula for drug administration was inserted, and the above-prepared FTY720 solution was intravenously administered to each of the guinea pigs (n=4) of Example 3 for 10 min at a dose of 0.01 mg/kg. These guinea pigs were evaluated for parameters by the following evaluation methods at 5 min, 10 min, 15 min, 20 min, 30 min, 45 min or 60 min after the administration of the FTY720 solution.
FTY720 (product of Sigma-Aldrich Inc.) was dissolved in physiological saline (product of Otsuka Pharmaceutical Factory, Inc.) so as to have a concentration of 0.3 mg/mL.
After the evaluation of base control, the cannula for drug administration was inserted, and the above-prepared FTY720 solution was intravenously administered to each of the guinea pigs (n=4) of Example 3 for 10 min at a dose of 0.1 mg/kg. These guinea pigs were evaluated for parameters by the following evaluation methods at 5 min, 10 min, 15 min, 20 min, 30 min, 45 min or 60 min after the administration of the FTY720 solution.
The aortic pressure and the electrocardiogram were monitored using a polygraph system (RM-6000, product of NIHON KOHDEN Co. Ltd.) and analyzed with a full-automated analysis system in real time (WinVAS ver. 3, 1.1R03; product of Physio-Tech Co., Ltd.).
Parameters of the electrocardiogram were measured three times, and the obtained values were averaged. Atrial rate was calculated from PP interval of the electrocardiogram. Ventricular rate was calculated from RR interval of the electrocardiogram.
The measurements in FIGS. 4A to 4E are expressed as mean±SE (n=4). The difference between the parameters was evaluated with one-way repeated measures analysis of variance (ANOVA). It was considered that p<0.05 is statistically significant. In FIG. 4A to 4C and FIG. 4E, “white circle,” “white square” and “white triangle” each mean absence of a significant difference relative to the value of the evaluation of base control (C), and “black circle” and “black square” each mean presence of a significant difference relative to the value of the evaluation of base control (C).
Also, in FIG. 4D, “white circle” means absence of development of atrioventricular block or presence of development of first-degree atrioventricular block, “white square” means presence of development of second-degree atrioventricular block (Wenckebach type), “white triangle” means presence of development of advanced atrioventricular block, “x-mark” means presence of development of third-degree atrioventricular block (complete atrioventricular block), and #1 to 4 refer to each individual.

In another series the test system is human. The following applies: 366 cases, 1.25 mg/day, Holter ECG one day after administration; cited from earlier work.
The mark [1] stands for this setting: FTY720 0.01 and 0.1 mg/kg/10 min i.v., for 60 min from start.
[2] abbreviates: high-dose 0.1 mg/kg/10 min i.v., n=4.

Turning to `CCCCCCCCc1ccc(CCC(N)(CO)CO)cc1` [FTY720, Fingolimod], in the series on dog, the “occurrence of atrioventricular block” value is reported as “not reported”. Moreover, in the series on Dogs (high-dose 3 mg/kg/10 min i.v.), the “change in PR interval” value is “no change” and the “change in heart rate (HR)” value is recorded as “significantly increased”. In the series on Dogs (low-dose 0.3 mg/kg/10 min i.v.), the “change in PR interval” value is recorded as “no significant change” and the “change in heart rate (HR)” value is recorded as “no significant change”. Besides, in the series on Guinea pigs (Hartley) (setting [1]), the “change in atrial rate” value is reported as “no significant change” and the “change in blood pressure (MBP)” value is given as “no significant change”. Moreover, the “change in QRS width” value in the series on Guinea pigs (Hartley) (high-dose 0.1 mg/kg/10 min i.v.) is reported as “no significant change”. The “correspondence of P wave and R wave in the electrocardiogram” value in the series with Guinea pigs (Hartley) (high-dose 0.1 mg/kg/10 min i.v., 45 min after start) is “the atrium and the ventricle are contracted independently of each other at their own individual rhythms”. Moreover, the “change in PR interval” value in the series with Guinea pigs (Hartley) (high-dose 0.1 mg/kg/10 min i.v., before development of atrioventricular block) was “prolonged”. Besides, the “change in ventricular rate” value with Guinea pigs (Hartley) (high-dose 0.1 mg/kg/10 min i.v., from 20 min to 60 min) was “significant decrease”. Moreover, in the series on Guinea pigs (Hartley) (high-dose 0.1 mg/kg/10 min i.v., from 45 min to 60 min), the “change in QT interval” value was “prolonged”. In the series with Guinea pigs (Hartley) (setting [2]), the “individuals that developed Wenckebach-type atrioventricular block” value is given as “one individual” and the “individuals that developed complete atrioventricular block” value is reported as “three individuals out of the four individuals”. The “change in any electrophysiological parameters (PR interval, QRS width, QT interval)” value in the series on Guinea pigs (Hartley) (low-dose 0.01 mg/kg/10 min i.v., at 60 min from start) is on record as “no significant change”. For the same molecule, the “change in ventricular rate” value in the series with Guinea pigs (Hartley) (low-dose 0.01 mg/kg/10 min i.v., for 60 min from start) is given as “no significant change”. Moreover, in the series on human, the “cases that developed advanced atrioventricular block (2:1 atrioventricular block)” value was 3.4%, the “cases that developed second-degree atrioventricular block (Mobitz type I or type II)” value was 6.6% and the “cases that developed third-degree atrioventricular block (complete atrioventricular block)” value is recorded as 0.3%.
